In ChEMBL document CHEMBL5316344, “Homologation of the Alkyl Side Chain of Antimitotic Phenyl 4-(2-Oxo-3-alkylimidazolidin-1-yl)benzenesulfonate Prodrugs Selectively Targeting CYP1A1-Expressing Breast Cancers Improves Their Stability in Rodent Liver Microsomes” (J Med Chem, 2023):
Values belong to the molecule of their own block, whether it stands above or below them.

Tests used:
[1] = Biodistribution in brain of nude mouse xenografted with human MCF7 cells at 292 kBq, iv administered as C14-lableled compound and assessed as radioactivity and measured at 6 hrs post dose by digital autoradiographic analysis; assay type: ADME, organism-based; settings: in vivo
[2] = Drug excretion in OF1 mouse urine at 292 kBq, iv administered as C14-lableled compound and assessed as radioactivity and measured at 3 to 6 hrs post dose; assay type: ADME, organism-based; settings: in vivo, time 3-6 hrs
[3] = Biodistribution in muscle of nude mouse xenografted with human MCF7 cells at 292 kBq, iv administered as C14-lableled compound and assessed as radioactivity and measured at 6 hrs post dose by digital autoradiographic analysis; assay type: ADME, organism-based, Muscle tissue; settings: in vivo
[4] = Biodistribution in kidney of nude mouse xenografted with human MCF7 cells at 292 kBq, iv administered as C14-lableled compound and assessed as radioactivity and measured at 6 hrs post dose by digital autoradiographic analysis; assay type: ADME, organism-based; settings: in vivo
[5] = Biodistribution in liver of OF1 mouse at 292 kBq, iv administered as C14-lableled compound and assessed as radioactivity and measured at 1 hr post dose by digital autoradiographic analysis; assay type: ADME, organism-based; settings: in vivo
[6] = Biodistribution in brain of OF1 mouse at 292 kBq, iv administered as C14-lableled compound and assessed as radioactivity and measured at 1 hr post dose by digital autoradiographic analysis; assay type: ADME, organism-based; settings: in vivo
[7] = Biodistribution in lung of nude mouse xenografted with human MCF7 cells at 292 kBq, iv administered as C14-lableled compound and assessed as radioactivity and measured at 6 hrs post dose by digital autoradiographic analysis; assay type: ADME, organism-based; settings: in vivo
[8] = Biodistribution in heart of OF1 mouse at 292 kBq, iv administered as C14-lableled compound and assessed as radioactivity and measured at 1 hr post dose by digital autoradiographic analysis; assay type: ADME, organism-based; settings: in vivo
[9] = Biodistribution in kidney of OF1 mouse at 292 kBq, iv administered as C14-lableled compound and assessed as radioactivity and measured at 1 hr post dose by digital autoradiographic analysis; assay type: ADME, organism-based; settings: in vivo
[10] = Biodistribution in stomach of nude mouse xenografted with human MCF7 cells at 292 kBq, iv administered as C14-lableled compound and assessed as radioactivity and measured at 6 hrs post dose by digital autoradiographic analysis; assay type: ADME, organism-based; settings: in vivo
[11] = Biodistribution in lungs of OF1 mouse at 292 kBq, iv administered as C14-lableled compound and assessed as radioactivity and measured at 1 hr post dose by digital autoradiographic analysis; assay type: ADME, organism-based, Lung; settings: in vivo
[12] = Biodistribution in stomach of OF1 mouse at 292 kBq, iv administered as C14-lableled compound and assessed as radioactivity and measured at 1 hr post dose by digital autoradiographic analysis; assay type: ADME, organism-based; settings: in vivo
[13] = Biodistribution in muscle of OF1 mouse at 292 kBq, iv administered as C14-lableled compound and assessed as radioactivity and measured at 1 hr post dose by digital autoradiographic analysis; assay type: ADME, organism-based, Muscle tissue; settings: in vivo
[14] = Biodistribution in spleen of nude mouse xenografted with human MCF7 cells at 292 kBq, iv administered as C14-lableled compound and assessed as radioactivity and measured at 6 hrs post dose by digital autoradiographic analysis; assay type: ADME, organism-based; settings: in vivo
[15] = Biodistribution in spleen of OF1 mouse at 292 kBq, iv administered as C14-lableled compound and assessed as radioactivity and measured at 1 hr post dose by digital autoradiographic analysis; assay type: ADME, organism-based; settings: in vivo
[16] = Biodistribution in heart of nude mouse xenografted with human MCF7 cells at 292 kBq, iv administered as C14-lableled compound and assessed as radioactivity and measured at 6 hrs post dose by digital autoradiographic analysis; assay type: ADME, organism-based; settings: in vivo
[17] = Drug excretion in OF1 mouse feces at 292 kBq, iv administered as C14-lableled compound and assessed as radioactivity and measured at 3 to 6 hrs post dose; assay type: ADME, organism-based; settings: in vivo, time 3-6 hrs
[18] = Biodistribution in heart of nude mouse xenografted with human MCF7 cells at 231 kBq, iv administered as C14-lableled compound and assessed as radioactivity and measured at 3 hrs post dose by digital autoradiographic analysis; assay type: ADME, organism-based; settings: in vivo
[19] = Biodistribution in spleen of OF1 mouse at 231 kBq, iv administered as C14-lableled compound and assessed as radioactivity and measured at 1 hr post dose by digital autoradiographic analysis; assay type: ADME, organism-based; settings: in vivo
[20] = Biodistribution in heart of OF1 mouse at 231 kBq, iv administered as C14-lableled compound and assessed as radioactivity and measured at 1 hr post dose by digital autoradiographic analysis; assay type: ADME, organism-based; settings: in vivo
[21] = Ratio of drug level in tumor to muscle in nude mouse xenografted with human MCF7 cells at 231 kBq, iv administered as C14-lableled compound and assessed as radioactivity and measured at 1 hr post dose; assay type: ADME, organism-based; settings: in vivo
[22] = Biodistribution in kidney of nude mouse xenografted with human MCF7 cells at 231 kBq, iv administered as C14-lableled compound and assessed as radioactivity and measured at 3 hrs post dose by digital autoradiographic analysis; assay type: ADME, organism-based; settings: in vivo
[23] = Biodistribution in stomach of nude mouse xenografted with human MCF7 cells at 231 kBq, iv administered as C14-lableled compound and assessed as radioactivity and measured at 3 hrs post dose by digital autoradiographic analysis; assay type: ADME, organism-based; settings: in vivo
[24] = Drug accumulation in tumor of nude mouse xenografted with human MCF7 cells at 231 kBq, iv administered as C14-lableled compound and assessed as radioactivity and measured at 3 hrs post dose by digital autoradiographic analysis; assay type: ADME, organism-based, Neoplasm; settings: in vivo
[25] = Drug excretion in OF1 mouse feces at 231 kBq, iv administered as C14-lableled compound and assessed as radioactivity and measured at 3 to 6 hrs post dose; assay type: ADME, organism-based; settings: in vivo, time 3-6 hrs
[26] = Biodistribution in kidney of OF1 mouse at 231 kBq, iv administered as C14-lableled compound and assessed as radioactivity and measured at 1 hr post dose by digital autoradiographic analysis; assay type: ADME, organism-based; settings: in vivo
[27] = Biodistribution in lungs of OF1 mouse at 231 kBq, iv administered as C14-lableled compound and assessed as radioactivity and measured at 1 hr post dose by digital autoradiographic analysis; assay type: ADME, organism-based, Lung; settings: in vivo
[28] = Biodistribution in muscle of OF1 mouse at 231 kBq, iv administered as C14-lableled compound and assessed as radioactivity and measured at 1 hr post dose by digital autoradiographic analysis; assay type: ADME, organism-based, Muscle tissue; settings: in vivo
[29] = Biodistribution in muscle of nude mouse xenografted with human MCF7 cells at 231 kBq, iv administered as C14-lableled compound and assessed as radioactivity and measured at 3 hrs post dose by digital autoradiographic analysis; assay type: ADME, organism-based, Muscle tissue; settings: in vivo
[30] = Biodistribution in spleen of nude mouse xenografted with human MCF7 cells at 231 kBq, iv administered as C14-lableled compound and assessed as radioactivity and measured at 3 hrs post dose by digital autoradiographic analysis; assay type: ADME, organism-based; settings: in vivo
[31] = Biodistribution in brain of nude mouse xenografted with human MCF7 cells at 231 kBq, iv administered as C14-lableled compound and assessed as radioactivity and measured at 3 hrs post dose by digital autoradiographic analysis; assay type: ADME, organism-based; settings: in vivo
[32] = Biodistribution in lungs of nude mouse xenografted with human MCF7 cells at 231 kBq, iv administered as C14-lableled compound and assessed as radioactivity and measured at 3 hrs post dose by digital autoradiographic analysis; assay type: ADME, organism-based, Lung; settings: in vivo
[33] = Biodistribution in liver of OF1 mouse at 231 kBq, iv administered as C14-lableled compound and assessed as radioactivity and measured at 1 hr post dose by digital autoradiographic analysis; assay type: ADME, organism-based; settings: in vivo
[34] = Drug accumulation in tumor of nude mouse xenografted with human MCF7 cells intravenously at 231 kBq, iv administered as C14-lableled compound and assessed as radioactivity and measured at 1 hr post dose by digital autoradiographic analysis; assay type: ADME, organism-based, Neoplasm; settings: in vivo
[35] = Drug excretion in OF1 mouse urine at 231 kBq, iv administered as C14-lableled compound and assessed as radioactivity and measured at 3 to 6 hrs post dose; assay type: ADME, organism-based; settings: in vivo, time 3-6 hrs
[36] = Ratio of drug level in tumor to muscle in nude mouse xenografted with human MCF7 cells at 231 kBq, iv administered as C14-lableled compound and assessed as radioactivity and measured at 3 hrs post dose; assay type: ADME, organism-based; settings: in vivo
[37] = Biodistribution in brain of OF1 mouse at 231 kBq, iv administered as C14-lableled compound and assessed as radioactivity and measured at 1 hr post dose by digital autoradiographic analysis; assay type: ADME, organism-based; settings: in vivo
[38] = Biodistribution in stomach of OF1 mouse at 231 kBq, iv administered as C14-lableled compound and assessed as radioactivity and measured at 1 hr post dose by digital autoradiographic analysis; assay type: ADME, organism-based; settings: in vivo

Drug uptake [1]: Not Active
Drug excretion [2]: Active
Drug uptake [3]: Not Active
Drug uptake [4]: Not Active
Drug uptake [5]: Active
Drug uptake [6]: Active
Drug uptake [7]: Not Active
Drug uptake [8]: Active
Drug uptake [9]: Active
Drug uptake [10]: Not Active
Drug uptake [11]: Active
Drug uptake [12]: Active
Drug uptake [13]: Active
Drug uptake [14]: Not Active
Drug uptake [15]: Active
Drug uptake [16]: Not Active
Drug excretion [17]: Active
SMILES: COc1cc(OS(=O)(=O)c2ccc(N3CCN[14C]3=O)cc2)cc(OC)c1OC

Drug uptake [18]: Not Active
Drug uptake [19]: Active
Drug uptake [20]: Active
Ratio [21]: 1.1
Drug uptake [22]: Not Active
Drug uptake [23]: Not Active
Drug uptake [24]: 0.8%
Drug excretion [25]: Active
Drug uptake [26]: Active
Drug uptake [27]: Active
Drug uptake [28]: Active
Drug uptake [29]: Not Active
Drug uptake [30]: Not Active
Drug uptake [31]: Not Active
Drug uptake [32]: Not Active
Drug uptake [33]: Active
Drug uptake [34]: 1.6%
Drug excretion [35]: Active
Ratio [36]: 2.5
Drug uptake [37]: Active
Drug uptake [38]: Active
SMILES: CCCCN1CCN(c2ccc(S(=O)(=O)Oc3cc(OC)c(OC)c(OC)c3)cc2)[14C]1=O
